Measured values reported in US6783949B1, “Processes for determining whether a test substance contains lipases or lipase inhibitors” (Aventis Pharma Deutschland GmbH, priority 1999, dated 2004).

Molecular target: T1, HSL (Rattus norvegicus, UniProt P15304)
T1 construct: The partially purified HSL can be stored at −70° C. for 4 to 6 weeks; from tissue; host or cells: rat epididymal fat cells (male Wistar rats)
T1 sequence (P15304 1-768 isoform P15304-2): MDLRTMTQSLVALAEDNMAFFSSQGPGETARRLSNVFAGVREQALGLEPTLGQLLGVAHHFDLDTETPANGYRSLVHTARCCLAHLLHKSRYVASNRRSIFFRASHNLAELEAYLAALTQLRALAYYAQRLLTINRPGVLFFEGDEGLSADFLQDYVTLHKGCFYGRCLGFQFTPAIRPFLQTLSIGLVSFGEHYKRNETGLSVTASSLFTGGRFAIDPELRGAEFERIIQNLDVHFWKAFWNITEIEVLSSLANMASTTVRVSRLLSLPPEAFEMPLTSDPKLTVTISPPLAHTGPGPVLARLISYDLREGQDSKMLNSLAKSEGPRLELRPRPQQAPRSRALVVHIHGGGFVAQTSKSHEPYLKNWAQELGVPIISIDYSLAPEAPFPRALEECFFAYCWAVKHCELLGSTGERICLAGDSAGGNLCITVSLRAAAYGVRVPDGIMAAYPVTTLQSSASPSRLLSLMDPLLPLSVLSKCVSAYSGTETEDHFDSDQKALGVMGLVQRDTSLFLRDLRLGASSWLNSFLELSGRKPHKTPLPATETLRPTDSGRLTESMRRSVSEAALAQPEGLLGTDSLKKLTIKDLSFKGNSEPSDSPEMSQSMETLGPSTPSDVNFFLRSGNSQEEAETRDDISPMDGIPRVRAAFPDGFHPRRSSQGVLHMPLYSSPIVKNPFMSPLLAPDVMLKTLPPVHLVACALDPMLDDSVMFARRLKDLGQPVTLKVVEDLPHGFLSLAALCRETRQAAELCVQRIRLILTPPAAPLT
Test: Indirect NAG assay (extinction increase at 481 nm)
Type: biochemical
Details: for Absorption change, Decrease, 550 nm / Absorption change, Increase, 481 nm / Increase in the absorption at 481 nm: NAG 0.05 mg/ml
Procedure: A typical reaction is carried out at 30° C. for 60 min, for example in 1.5 ml Eppendorf vessels or 96-hole plates. […] 180 μl of the substrate solution (20 μg/ml of phosphatidylcholine, 10 μg/ml of phosphatidylinositol, 50 μg/ml of NAG in assay buffer) are added. After a preincubation for 15 min at 30° C., 20 μl of HSL in assay buffer are pipetted in and the extinction is immediately measured (see above) at 481 nm in a cuvette photometer (0.5 ml cuvette) or microtiter plate reader. After a certain incubation time, which is variable and depends on the chosen enzyme concentration and can be between 2 and 240 minutes, in this case incubation at 30° C. for 60 min, the extinction is measured again. The increase in the extinction in the yellow region, in this case at 481 nm, is a measure of the enzyme activity.
Isolated rat fat cells are obtained from epididymal fatty tissue from untreated male rats (Wistar, 220-250 g) by collagenase treatment according to published processes. The fat cells from 10 rats are washed three times by flotation with 50 ml each of homogenization buffer ([…], pH 7.4, 0.25 M sucrose, 1 mM ethylenediamine-N,N,N′,N′-tetraacetic acid (EDTA), 1 mM dithiothreitol (DTT), 10 μg/ml of leupeptin, 10 μg/ml of antipain, 20 μg/ml of pepstatin) and finally taken up in 10 ml of homogenization buffer. The fat cells are homogenized in a Teflon-in-glass homogenizer (Braun-Melsungen) by 10 strokes at 1500 rpm and 15° C. The homogenizate is centrifuged (Sorvall SM24 tubes, 5000 rpm, 10 min, 4° C.). The […] between the overlying fatty layer and the pellet is removed and the centrifugation is repeated. The […] resulting from this is centrifuged again (Sorvall SM24 tubes, 20,000 rpm, 45 min, 4° C.). […] After incubation for 60 min at 4° C. (shake at intervals of 15 min), the batch is centrifuged (Sorvall SM24 tubes, 3000 rpm, 10 min, 4° C.). The supernatant is brought to pH 5.2 by addition of glacial acetic acid and incubated at 4° C. for 30 min. […] The suspension is dialyzed overnight at 4° C. against 25 mM TRIS/HCl, pH 7.4, 50% glycerol, 1 mM DTT, and 10 μg/ml of leupeptin, pepstatin, and antipain and then applied to a hydroxylapatite column (0.1 g per 1 ml of suspension, equilibrated with 10 mM potassium phosphate, pH 7.0, 30% glycerol, 1 mM DTT). The column is washed with four volumes of equilibration buffer at a flow rate of 20 to 30 ml/h. The HSL is eluted with a volume of equilibration buffer which contains 0.5 M potassium phosphate, then dialyzed (see above) and concentrated 5 to 10 times by ultrafiltration (Amicon Diaflo PM 10 filter) at 4° C. The partially purified HSL can be stored at −70° C. for 4 to 6 weeks.
6 mg of phosphatidylcholine and 6 mg of phosphatidylinositol are dissolved in 1 ml of chloroform each. 10 mg of NAG are dissolved in 1 ml of chloroform. […] The chloroform (225 μl total volume) is completely removed by overblowing with a stream of N2. The dried substrate can be stored at 4° C. for up to three days. For the preparation of the phospholipid vesicles/micelles having intercalated NAG (on the test day), the dried substrate is taken up in 20 ml of assay buffer (25 mM TRIS/HCl, pH 7.4; 150 mM NaCl) and two ultrasonic treatments with an ultrasonic probe (Branson Sonifier type 11, standard microtip): 1st treatment setting 2, 2×1 min, in between in each case 1 min on ice; 2nd treatment setting 4, 2×1 min, in between in each case 1 min on ice. […] Before use as a substrate (within the next 2 h), the solution is additionally incubated on ice for 15 min.
The assay is carried out at 30° C. for 60 min in 1.5 ml Eppendorf vessels or 96-hole plates.

O=C(CCCCCCCCCCCNc1ccc([N+](=O)[O-])c2nonc12)OCC(O)CO (stereo not drawn) [Compound (3)]
Signal strength (20 μg of protein, 0.05 mg/ml of NAG): 0.6 to 0.7 OD | Absorption change, Decrease, 550 nm (HSL 1 μg, 60 min): 866 ± 94 arb. units | Absorption change, Increase, 481 nm (HSL 1 μg, 60 min): 156 ± 21 arb. units | Absorption change, Decrease, 550 nm (HSL 2 μg, 60 min): 841 ± 78 arb. units | Absorption change, Increase, 481 nm (HSL 2 μg, 60 min): 347 ± 40 arb. units | Increase in the absorption at 481 nm (HSL 5 μg, 1 min): 12 ± 2 arb. units | Increase in the absorption at 481 nm (HSL 5 μg, 2 min): 23 ± 4 arb. units | Increase in the absorption at 481 nm (HSL 5 μg, 5 min): 45 ± 9 arb. units | Increase in the absorption at 481 nm (HSL 5 μg, 10 min): 105 ± 18 arb. units | Increase in the absorption at 481 nm (HSL 5 μg, 15 min): 155 ± 20 arb. units | Increase in the absorption at 481 nm (HSL 5 μg, 20 min): 219 ± 31 arb. units | Increase in the absorption at 481 nm (HSL 5 μg, 30 min): 295 ± 47 arb. units | Increase in the absorption at 481 nm (HSL 5 μg, 45 min): 453 ± 52 arb. units | Absorption change, Decrease, 550 nm (HSL 5 μg, 60 min): 779 ± 82 arb. units | Absorption change, Increase, 481 nm (HSL 5 μg, 60 min): 791 ± 88 arb. units | Increase in the absorption at 481 nm (HSL 5 μg, 60 min): 677 ± 70 arb. units | Increase in the absorption at 481 nm (HSL 5 μg, 75 min): 831 ± 92 arb. units | Increase in the absorption at 481 nm (HSL 5 μg, 90 min): 995 ± 82 arb. units | Increase in the absorption at 481 nm (HSL 5 μg, 120 min): 1455 ± 102 arb. units | Increase in the absorption at 481 nm (HSL 5 μg, 180 min): 1937 ± 121 arb. units | Absorption change, Decrease, 550 nm (HSL 7.5 μg, 60 min): 759 ± 69 arb. units | Absorption change, Increase, 481 nm (HSL 7.5 μg, 60 min): 1066 ± 120 arb. units | Increase in the absorption at 481 nm (HSL 10 μg, 1 min): 19 ± 4 arb. units | Increase in the absorption at 481 nm (HSL 10 μg, 2 min): 51 ± 9 arb. units | Increase in the absorption at 481 nm (HSL 10 μg, 5 min): 102 ± 19 arb. units | Increase in the absorption at 481 nm (HSL 10 μg, 10 min): 185 ± 26 arb. units | Increase in the absorption at 481 nm (HSL 10 μg, 15 min): 288 ± 39 arb. units | Increase in the absorption at 481 nm (HSL 10 μg, 20 min): 395 ± 36 arb. units | Increase in the absorption at 481 nm (HSL 10 μg, 30 min): 517 ± 67 arb. units | Increase in the absorption at 481 nm (HSL 10 μg, 45 min): 830 ± 57 arb. units | Absorption change, Decrease, 550 nm (HSL 10 μg, 60 min): 650 ± 61 arb. units | Absorption change, Increase, 481 nm (HSL 10 μg, 60 min): 1255 ± 141 arb. units | Increase in the absorption at 481 nm (HSL 10 μg, 60 min): 1179 ± 110 arb. units | Increase in the absorption at 481 nm (HSL 10 μg, 75 min): 1487 ± 104 arb. units | Increase in the absorption at 481 nm (HSL 10 μg, 90 min): 1844 ± 130 arb. units | Increase in the absorption at 481 nm (HSL 10 μg, 120 min): 2745 ± 195 arb. units | Increase in the absorption at 481 nm (HSL 10 μg, 180 min): 3521 ± 254 arb. units | Absorption change, Decrease, 550 nm (HSL 15 μg, 60 min): 540 ± 55 arb. units | Absorption change, Increase, 481 nm (HSL 15 μg, 60 min): 2351 ± 205 arb. units | Increase in the absorption at 481 nm (HSL 20 μg, 1 min): 5 ± 7 arb. units | Increase in the absorption at 481 nm (HSL 20 μg, 2 min): 78 ± 12 arb. units | Increase in the absorption at 481 nm (HSL 20 μg, 5 min): 193 ± 36 arb. units | Increase in the absorption at 481 nm (HSL 20 μg, 10 min): 423 ± 62 arb. units | Increase in the absorption at 481 nm (HSL 20 μg, 15 min): 617 ± 70 arb. units | Increase in the absorption at 481 nm (HSL 20 μg, 20 min): 865 ± 93 arb. units | Increase in the absorption at 481 nm (HSL 20 μg, 30 min): 1143 ± 216 arb. units | Increase in the absorption at 481 nm (HSL 20 μg, 45 min): 1877 ± 206 arb. units | Absorption change, Decrease, 550 nm (HSL 20 μg, 60 min): 287 ± 51 arb. units | Absorption change, Increase, 481 nm (HSL 20 μg, 60 min): 2867 ± 199 arb. units | Increase in the absorption at 481 nm (HSL 20 μg, 60 min): 2510 ± 295 arb. units | Increase in the absorption at 481 nm (HSL 20 μg, 75 min): 3067 ± 310 arb. units | Increase in the absorption at 481 nm (HSL 20 μg, 90 min): 3527 ± 188 arb. units | Increase in the absorption at 481 nm (HSL 20 μg, 120 min): 4941 ± 410 arb. units | Increase in the absorption at 481 nm (HSL 20 μg, 180 min): 5712 ± 399 arb. units | Absorption change, Decrease, 550 nm (HSL 25 μg, 60 min): 198 ± 44 arb. units | Absorption change, Increase, 481 nm (HSL 25 μg, 60 min): 3428 ± 270 arb. units | Absorption change, Decrease, 550 nm (HSL 30 μg, 60 min): 115 ± 35 arb. units | Absorption change, Increase, 481 nm (HSL 30 μg, 60 min): 3973 ± 244 arb. units | Increase in the absorption at 481 nm (HSL 40 μg, 1 min): 91 ± 14 arb. units | Increase in the absorption at 481 nm (HSL 40 μg, 2 min): 89 ± 32 arb. units | Increase in the absorption at 481 nm (HSL 40 μg, 5 min): 395 ± 62 arb. units | Increase in the absorption at 481 nm (HSL 40 μg, 10 min): 784 ± 88 arb. units | Increase in the absorption at 481 nm (HSL 40 μg, 15 min): 1060 ± 144 arb. units
